Values of other authors as cited in patent publication US8470366B2, “Nicotine containing soft gelatin pastilles” (priority 2010, dated 2013).

Experiments:
[1] = background statement
[2] = background statement; remark: listed apart in the source

| Structure (SMILES) | Physiological activity relative to (−) nicotine [1] | Half life of nicotine in the body [2] |
| --- | --- | --- |
| CN1CCCC1c1cccnc1 (single isomer, unassigned; (+)) [(+) nicotine] | one-half |  |
| CN1CCCC1c1cccnc1 (centres unmarked) [nicotine, Nicotine] |  | around two |
